This data set relates to rodent carcinogenicity bioassays, tumor incidence. Nature of the data set: CCRIS carcinogenicity studies. In outline:
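Archive of carcinogenicity, mutagenicity, tumor promotion and tumor inhibition results drawn from journals, NCI reports and other sources, expert-reviewed; covers 1985-2011 and is no longer updated.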

The structures appear in SMILES notation. The source made the active and inactive calls. No rule for the calls is given here.

On to `CN=[N+](C)[O-]`, for which the carcinogen call reads like this: (Species: MOUSE, Strain/Sex: A/J/MALE,FEMALE, Route: INTRAPERITONEAL INJECTION, Dose: 5, 10 MG/KG BW ONCE A WEEK FOR 4 WKS, Tumor Site: Type of Lesion: COLON: TUMORS (ADENOMA), % OF TUMOR BEARING MICE WAS 10X HIGHER IN 10 MG/KG GROUP) “active; positive; all animals given 20 mg/kg died”; (Species: MOUSE, Strain/Sex: A/J/MALE,FEMALE, Route: INTRAPERITONEAL INJECTION, Dose: 10 MG/KG ONCE WEEKLY FOR 2, 4, 8 WKS, Tumor Site: Type of Lesion: COLON: ADENOMA) “active; positive; response of approximately 25% with 2 doses to almost 100% at 4 or 8 d”; (Species: MOUSE, Strain/Sex: A/J/MALE,FEMALE, Route: SUBCUTANEOUS INJECTION, Dose: 10 MG/KG BW ONCE A WK FOR 4 WK, Tumor Site: Type of Lesion: COLON: ADENOMA) “active; positive; almost 80% incidence”; (Species: MOUSE, Strain/Sex: AKR/J/MALE,FEMALE, Route: INTRAPERITONEAL INJECTION, Dose: 10 MG/KG BW WEEKLY FOR 2, 4, 8 WKS (STUDY DURATION: 6 MO), Tumor Site: Type of Lesion: COLON: ADENOMAS) “only 5% of animals at 4 wk treatment developed tumors”; (Species: MOUSE, Strain/Sex: AKR/J/MALE,FEMALE, Route: SUBCUTANEOUS, Dose: 10 MG/KG BW WEEKLY FOR 4 WK (STUDY DURATION: 6 MO), Tumor Site: Type of Lesion: COLON: ADENOMA) “only about 5% developed tumors”; (Species: MOUSE, Strain/Sex: ICR/MALE, Route: SUBCUTANEOUS, Dose: 0, 0.3 MG/MOUSE IN SALINE 1/WK FOR 20 WK (STUDY DURATION: 36 WK), Tumor Site: Type of Lesion: COLON: ADENOMA OR ADENOCARCINOMA, ADENOMA OR ADENOCARCINOMA OR CARCINOMA, RECTUM: CARCINOMA, BLOOD VESSELS: ANGIOMA OR A, Tumor Site: Type of Lesion: COLON: ADENOMA OR ADENOCARCINOMA, ADENOMA OR ADENOCARCINOMA OR CARCINOMA, RECTUM: CARCINOMA, BLOOD VESSELS: ANGIOMA OR A) “active; positive”. Also, the carcinogen call (Species: MOUSE, Strain/Sex: SWR/J/MALE,FEMALE, Route: INTRAPERITONEAL INJECTION, Dose: 10 MG/KG BW FOR 2, 4, OR 8 WKS, ONCE A WK (STUDY DURATION: 6 MO), Tumor Site: Type of Lesion: COLON: ADENOMA) was “active; positive- tumor incidence 30-100%”; the carcinogen call (Species: MOUSE, Strain/Sex: SWR/J/MALE,FEMALE, Route: SUBCUTANEOUS INJECTION, Dose: 10 MG/KG BW ONCE A WK FOR 4 WK, Tumor Site: Type of Lesion: COLON: ADENOMA) is “active; positive; response about 30%”; the carcinogen call (Species: RAT, Strain/Sex: F344/FEMALE, Route: INTRAVESICULAR, Dose: 0, 2 MG IN 0.2 ML ETHANOL: DEIONIZED WATER (1:3) 2/WK FOR 22 WK (TOTAL DOSE 1.2 MMOL) (STUDY DURATION: LIFESPAN), Tumor Site: Type of Lesion: COLON: TUMOR, ZYMBAL GLAND: TUMOR) was “active; positive”; the carcinogen call (Species: RAT, Strain/Sex: F344/FEMALE, Route: SUBCUTANEOUS, Dose: 8 MG/KG 1/WK FOR 10 WK, Tumor Site: Type of Lesion: COLON: ADENOMA, CARCINOMA, ADENOCARCINOMA) is “active; positive”; the carcinogen call (Species: RAT, Strain/Sex: F344/MALE, Route: ORAL, Dose: 0, 1.0, 4.0 MG/WK IN DRINKING WATER FOR 30 WK (STUDY DURATION: LIFETIME), Dose: 0, 1.0, 4.0 MG/WK IN DRINKING WATER FOR 30 WK (STUDY DURATION: LIFETIME), Tumor Site: Type of Lesion: LIVER: CARCINOMA, SARCOMA, KIDNEY: INTERSTITIAL CELL SARCOMA OR NEUROSARCOMA OR RENAL CARCINOMA, COLON: ADENOMA OR CARCI, Tumor Site: Type of Lesion: LIVER: CARCINOMA, SARCOMA, KIDNEY: INTERSTITIAL CELL SARCOMA OR NEUROSARCOMA OR RENAL CARCINOMA, COLON: ADENOMA OR CARCI) was “active; positive”; the carcinogen call (Species: RAT, Strain/Sex: F344/MALE, Route: ORAL, Dose: 0, 10, 40 MG/ML IN A NEUTRAL DEIONIZED DRINKING WATER SOLUTION 5 D/WK FOR 30 WK (TOTAL DOSE 30; 120 MG) (STUDY DURATION:, Dose: 0, 10, 40 MG/ML IN A NEUTRAL DEIONIZED DRINKING WATER SOLUTION 5 D/WK FOR 30 WK (TOTAL DOSE 30; 120 MG) (STUDY DURATION:, Tumor Site: Type of Lesion: LIVER: CARCINOMA, HEMANGIOSARCOMA, KIDNEY: TUMOR, COLON: ADENOCARCINOMA, ADENOMA, Tumor Site: Type of Lesion: LIVER: CARCINOMA, HEMANGIOSARCOMA, KIDNEY: TUMOR, COLON: ADENOCARCINOMA, ADENOMA) is “active; positive”. Further, the carcinogen call runs as follows: (Species: RAT, Strain/Sex: SPRAGUE-DAWLEY/MALE, Route: SUBCUTANEOUS, Dose: 8 MG/KG 1/WK FOR 24 WK, Tumor Site: Type of Lesion: INTESTINES (LARGE AND SMALL): ADENOCARCINOMA) “active; positive”; (Species: RAT, Strain/Sex: STRAIN-BD, Route: SUBCUTANEOUS, Dose: >6 MG/KG ONCE, Tumor Site: Type of Lesion: COLON: ADENOCARCINOMA, KIDNEY: NEPHROBLASTOMA) “active; positive”; (Species: RAT, Strain/Sex: STRAIN-BD, Route: SUBCUTANEOUS, Dose: >6 MG/KG ONCE, Tumor Site: Type of Lesion: COLON: ADENOCARCINOMA, NERVOUS SYSTEM: NEUROBLASTOMA, KIDNEY: NEPHROBLASTOMA, Tumor Site: Type of Lesion: COLON: ADENOCARCINOMA, NERVOUS SYSTEM: NEUROBLASTOMA, KIDNEY: NEPHROBLASTOMA) “active; positive”; (Species: RAT, Strain/Sex: WISTAR/MALE, Route: SUBCUTANEOUS, Dose: 0, 7.4 MG/KG IN 0.9% SALINE 1/WK FOR 10 WK ADMINISTERED TO RATS MAINTAINED ON NORMAL-PROTEIN (25% CASEIN), LOW-PROTEIN (, Tumor Site: Type of Lesion: COLON: TUMOR) “active; positive”.

For the molecule `NC(=O)c1ccccc1C(N)=O`, the carcinogen call reads like this: (Species: MOUSE, Strain/Sex: B6C3F1/FEMALE, Route: ORAL, Dose: 0, 6200, 12500, 25000 PPM IN DIET FOR 103-105 WK, Dose: 0, 6200, 12500, 25000 PPM IN DIET FOR 103-105 WK) “inactive; negative”; (Species: MOUSE, Strain/Sex: B6C3F1/MALE, Route: ORAL, Dose: 0, 25000, 50000 PPM IN DIET FOR 105 WK, Dose: 0, 25000, 50000 PPM IN DIET FOR 105 WK) “inactive; negative”; (Species: RAT, Strain/Sex: F344/FEMALE, Route: ORAL, Dose: 0, 5000, 10000 PPM IN DIET FOR 106 WK, Dose: 0, 5000, 10000 PPM IN DIET FOR 106 WK) “inactive; negative”; (Species: RAT, Strain/Sex: F344/MALE, Route: ORAL, Dose: 0, 15000, 30000 PPM IN DIET FOR 106 WK, Dose: 0, 15000, 30000 PPM IN DIET FOR 106 WK) “inactive; negative”.

With `Cc1cc(C)c(S(=O)(=O)O)cc1N=Nc1cc(S(=O)(=O)O)c2ccccc2c1O`, the carcinogen call was “inactive; negative” (Species: MOUSE, Strain/Sex: SWISS-WEBSTER/FEMALE, Route: DERMAL, Dose: 0, 1% IN 0.1 ML DISTILLED WATER 1/WK FOR 19.5 MO (STUDY DURATION: 19.5 MO)) and “inactive; negative” (Species: MOUSE, Strain/Sex: SWISS-WEBSTER/MALE, Route: DERMAL, Dose: 0, 1% IN 0.1 ML DISTILLED WATER 1/WK FOR 19.5 MO (STUDY DURATION: 19.5 MO)).

With `COc1c2occc2cc2ccc(=O)oc12`, the carcinogen call (Species: RAT, Strain/Sex: F344/F, Route: GAVAGE, Dose: 0, 37.5, 75 MG/KG IN CORN OIL 5D/WK FOR 103 WK (STUDY DURATION: 106 WK), Dose: 0, 37.5, 75 MG/KG IN CORN OIL 5D/WK FOR 103 WK (STUDY DURATION: 106 WK)) was “inactive; negative” and the carcinogen call (Species: RAT, Strain/Sex: F344/M, Route: GAVAGE, Dose: 0, 37.5, 75 MG/KG IN CORN OIL 5D/WK FOR 103 WK (STUDY DURATION: 106 WK), Dose: 0, 37.5, 75 MG/KG IN CORN OIL 5D/WK FOR 103 WK (STUDY DURATION: 106 WK), Tumor Site: Type of Lesion: SUBCUTANEOUS TISSUE: FIBROMA, SUBCUTANEOUS TISSUE: FIBROMA OR SARCOMA, LUNG: ALVEOLAR/BRONCHIOLAR ADENOMA, KIDNEY: TUBUL, Tumor Site: Type of Lesion: SUBCUTANEOUS TISSUE: FIBROMA, SUBCUTANEOUS TISSUE: FIBROMA OR SARCOMA, LUNG: ALVEOLAR/BRONCHIOLAR ADENOMA, KIDNEY: TUBUL) was “active; positive”.

On to `CCCCN(N=O)C(=O)CCC(=O)OCC`, for which the carcinogen call (Species: RAT, Strain/Sex: F344/MALE,FEMALE, Route: SUBCUTANEOUS, Dose: 38 UMOL/KG IN OLIVE OIL 1/WK FOR 10 WK, Tumor Site: Type of Lesion: INJECTION SITE: MALIGNANT FIBROUS HISTIOCYTOMA) is “active; positive”.

`NC1=NCN([C@@H]2O[C@H](CO)[C@@H](O)[C@H]2O)C(=O)N1`: the carcinogen call (Species: RAT, Strain/Sex: F344/MALE, Route: INTRAPERITONEAL, Dose: 0, 50 MG/KG IN 0.9% SALINE 3/WK FOR 1 YR (STUDY DURATION: 1 YR)) is “inactive; negative”.

For the origin of these results see PubChem BioAssay AID1259411 (Chemical Carcinogenesis Research Information System (CCRIS), 2018).
